# Measurements from patent US20120101134A1, “5-MEMBERED HETEROARYL DERIVATIVES USED AS SPHINGOSINE 1-PHOSPHATE RECEPTOR AGONISTS” (GLAXO GROUP LIMITED, priority 2009, published 2012).
# Biological target: T1, human Endothelial Differentiation Gene 1 (EDG1) (Homo sapiens, UniProt P21453)
# T1 construct: TEV protease site; Gal4-VP16 transcription factor; expressed in transfected cells; host or cells: EDG1-bla/U2OS (Tango GPCR-bla U2OS parental cell line)
# Test: S1P1 Tango assay - 384 well format
# Assay type: cell-based
# Conditions: EDG1-bla/U2OS cells, agonist
# Protocol: S1P1 Tango assay—384 Well Format
# Recombinant EDG1-bla/U2OS cells (contain the human Endothelial Differentiation Gene 1 (EDG1) linked to a TEV protease site and a Gal4-VP16 transcription factor stably integrated into the Tango GPCR-bla U2OS parental cell line) were harvested from growth medium and passaged into assay medium (Invitrogen Freestyle Expression Medium). The cells were starved for 24 hours at 37° C., 5% CO2, harvested and resuspended in assay medium at a density of ˜200,000 cells/ml. All test compounds were dissolved in DMSO at a concentration of 10 mM and were prepared in 100% DMSO to provide 10 point dose response curves. Test compounds prepared by Bravo (Velocity11) were added to wells in columns 2-11 and 13-22; DMSO was added to wells in columns 12 and 23 as unstimulated controls and assay medium was added to wells in columns 1 and 24 as cell-free controls. An S1P1 agonist was added to wells in row 2, columns 2-11 as stimulated controls and test compounds were added to wells in row 2, columns 13-22 and rows 3-15, columns 2-11/13-22 (row 1 and 16 were empty and not used). Compounds in solution were added to the assay plate (Greiner 781090) using an Echo (Labcyte) dose-response program (50 nl/well). The unstimulated and cell-free controls were loaded with 50 nl/well pure DMSO to ensure that the DMSO concentration was constant across the plate for all assays.
# 50 μl of the cell suspension was added to each well in columns 2-23 of the plate (˜10,000 cells per well). 50 μl of assay medium was added to each well in the cell-free controls (columns 1 and 24). The cells were incubated overnight at 37° C./5% CO2.
# 10 μl of 6× substrate mixture (LiveBLAzer™-FRET B/G substrate (CCF4-AM) Cat #K1096 from Invitrogen, Inc.) was added to each well using Bravo and the plates incubated at room temperature for 2 h in the dark. The plate was finally read on EnVision using one excitation channel (409 nm) and two emission channels (460 nm and 530 nm).
# The blue/green emission ratio (460 nm/530 nm) was calculated for each well, by dividing the background-subtracted Blue emission values by the background-subtracted Green emission values. The dose response curve is based on sigmoidal dose-response model. All ratio data was normalized based upon the maximum emission ratio of positive control and minimum emission ratio of negative control (DMSO) on each plate. The intrinsic activity (IA) of each compound would be the normalized percentage of its maximum response after curve fitting.
# T1 sequence (P21453 whole entry, the tested form may be a part): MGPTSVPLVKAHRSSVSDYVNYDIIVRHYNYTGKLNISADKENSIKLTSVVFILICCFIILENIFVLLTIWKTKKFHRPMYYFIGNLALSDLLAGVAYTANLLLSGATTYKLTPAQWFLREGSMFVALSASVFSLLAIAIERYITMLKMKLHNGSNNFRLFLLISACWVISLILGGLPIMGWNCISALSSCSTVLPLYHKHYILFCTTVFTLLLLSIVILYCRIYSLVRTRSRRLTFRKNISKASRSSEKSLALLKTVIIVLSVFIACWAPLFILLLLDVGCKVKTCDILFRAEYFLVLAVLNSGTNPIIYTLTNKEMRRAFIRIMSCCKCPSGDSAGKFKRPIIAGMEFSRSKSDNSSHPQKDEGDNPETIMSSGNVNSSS
row,EC50 [µM],Compound
1,≤ 0.01,"Cc1c(-c2noc(-c3ccc(OC(C)C)c(Cl)c3)n2)ccnc1CCCC(=O)O [Example 7, 4-[4-(5-{3-chloro-4-[(1-methylethyl)oxy]phenyl}-1,2,4-oxadiazol-3-yl)-3-methyl-2-pyridinyl]butanoic acid]"
2,≤ 0.01,"CC(C)Oc1ncc(-c2nc(-c3cccc(CCC(=O)O)c3Cl)no2)cc1Cl [Example 8, 3-[2-chloro-3-(5-{5-chloro-6-[(1-methylethyl)oxy]-3-pyridinyl}-1,2,4-oxadiazol-3-yl)phenyl]propanoic acid]"
3,≤ 0.001,"CC(C)Oc1ccc(-c2nc(-c3cccc(CCCC(=O)O)c3Cl)no2)cc1C#N [Example 11, 4-[2-chloro-3-(5-{3-cyano-4-[(1-methylethyl)oxy]phenyl}-1,2,4-oxadiazol-3-yl)phenyl]butanoic acid]"
4,≤ 0.001,"CC(C)Oc1ccc(-c2nc(-c3cccc(CCCCCC(=O)O)c3Cl)no2)cc1C#N [Example 12, 6-[2-chloro-3-(5-{3-cyano-4-[(1-methylethyl)oxy]phenyl}-1,2,4-oxadiazol-3-yl)phenyl]hexanoic acid]"
5,≤ 0.01,"CCc1c(CCCC(=O)O)cccc1-c1noc(-c2cnc(OC(C)C)c(Cl)c2)n1 [Example 14, 4-[3-(5-{5-chloro-6-[(1-methylethyl)oxy]-3-pyridinyl}-1,2,4-oxadiazol-3-yl)-2-ethylphenyl]butanoic acid]"
6,≤ 0.001,"CCc1c(CCCC(=O)O)cccc1-c1noc(-c2ccc(OC(C)C)c(C#N)c2)n1 [Example 15, 4-[3-(5-{3-cyano-4-[(1-methylethyl)oxy]phenyl}-1,2,4-oxadiazol-3-yl)-2-ethylphenyl]butanoic acid]"
7,≤ 0.001,"COc1c(CCCC(=O)O)cccc1-c1noc(-c2ccc(OC(C)C)c(Cl)c2)n1 [Example 17, 4-[3-(5-{3-chloro-4-[(1-methylethyl)oxy]phenyl}-1,2,4-oxadiazol-3-yl)-2-(methyloxy)phenyl]butanoic acid]"
8,≤ 1,"CC(C)Oc1ccc(-c2nc(-c3ccnc(CCC(=O)O)c3)no2)cc1C#N [Example 20, 3-[4-(5-{3-cyano-4-[(1-methylethyl)oxy]phenyl}-1,2,4-oxadiazol-3-yl)-2-pyridinyl]propanoic acid]"
9,≤ 1,"CC(C)Oc1ccc(-c2nc(-c3ccc(F)c(CCC(=O)O)c3)no2)cc1C#N [Example 22, 3-[5-(5-{3-cyano-4-[(1-methylethyl)oxy]phenyl}-1,2,4-oxadiazol-3-yl)-2-fluorophenyl]propanoic acid]"
10,≤ 1,"CC(C)Oc1ccc(-c2nc(-c3ccc(F)c(CCCC(=O)O)c3)no2)cc1C#N [Example 23, 4-[5-(5-{3-cyano-4-[(1-methylethyl)oxy]phenyl}-1,2,4-oxadiazol-3-yl)-2-fluorophenyl]butanoic acid]"
11,≤ 0.01,"CC(C)Oc1ccc(-c2nc(-c3cccc(CCC(=O)O)c3C(F)(F)F)no2)cc1C#N [Example 24, 3-[3-(5-{3-cyano-4-[(1-methylethyl)oxy]phenyl}-1,2,4-oxadiazol-3-yl)-2-(trifluoromethyl)phenyl]propanoic acid]"
12,≤ 0.1,"CC(C)Oc1ccc(-c2nc(-c3cccc(CCCC(=O)O)c3C(F)(F)F)no2)cc1C#N [Example 25, 4-[3-(5-{3-cyano-4-[(1-methylethyl)oxy]phenyl}-1,2,4-oxadiazol-3-yl)-2-(trifluoromethyl)phenyl]butanoic acid]"
13,≤ 0.001,"CCc1c(CCCC(=O)O)cccc1-c1noc(-c2ccc(OC(C)C)c(Cl)c2)n1 [Example 28, 4-[3-(5-{3-chloro-4-[(1-methylethyl)oxy]phenyl}-1,2,4-oxadiazol-3-yl)-2-ethylphenyl]butanoic acid]"
14,≤ 0.001,"CCc1c(CCC(=O)O)cccc1-c1noc(-c2ccc(OC(C)C)c(Cl)c2)n1 [Example 29, 3-[3-(5-{3-chloro-4-[(1-methylethyl)oxy]phenyl}-1,2,4-oxadiazol-3-yl)-2-ethylphenyl]propanoic acid]"
15,≤ 0.001,"COc1c(CCC(=O)O)cc(F)cc1-c1noc(-c2ccc(OC(C)C)c(C#N)c2)n1 [Example 30, 3-[3-(5-{3-cyano-4-[(1-methylethyl)oxy]phenyl}-1,2,4-oxadiazol-3-yl)-5-fluoro-2-(methyloxy)phenyl]propanoic acid]"
16,≤ 0.001,"COc1c(CCCC(=O)O)cc(F)cc1-c1noc(-c2ccc(OC(C)C)c(C#N)c2)n1 [Example 31, 4-[3-(5-{3-cyano-4-[(1-methylethyl)oxy]phenyl}-1,2,4-oxadiazol-3-yl)-5-fluoro-2-(methyloxy)phenyl]butanoic acid]"
17,≤ 0.01,"COc1c(CCCC(=O)O)cc(F)cc1-c1noc(-c2cnc(OC(C)C)c(Cl)c2)n1 [Example 32, 4-[3-(5-{5-chloro-6-[(1-methylethyl)oxy]-3-pyridinyl}-1,2,4-oxadiazol-3-yl)-5-fluoro-2-(methyloxy)phenyl]butanoic acid]"
18,≤ 0.1,"COc1c(CCC(=O)O)cc(F)cc1-c1noc(-c2cnc(OC(C)C)c(Cl)c2)n1 [Example 33, 3-[3-(5-{5-chloro-6-[(1-methylethyl)oxy]-3-pyridinyl}-1,2,4-oxadiazol-3-yl)-5-fluoro-2-(methyloxy)phenyl]propanoic acid]"
19,≤ 0.01,"COc1c(CCC(=O)O)cc(F)cc1-c1noc(-c2ccc(OC(C)C)c(Cl)c2)n1 [Example 34, 3-[3-(5-{3-chloro-4-[(1-methylethyl)oxy]phenyl}-1,2,4-oxadiazol-3-yl)-5-fluoro-2-(methyloxy)phenyl]propanoic acid]"
20,≤ 0.001,"COc1c(CCCC(=O)O)cc(F)cc1-c1noc(-c2ccc(OC(C)C)c(Cl)c2)n1 [Example 35, 4-[3-(5-{3-chloro-4-[(1-methylethyl)oxy]phenyl}-1,2,4-oxadiazol-3-yl)-5-fluoro-2-(methyloxy)phenyl]butanoic acid]"
21,≤ 0.01,"CCCc1c(CCCC(=O)O)cccc1-c1noc(-c2ccc(OC(C)C)c(Cl)c2)n1 [Example 36, 4-[3-(5-{3-chloro-4-[(1-methylethyl)oxy]phenyl}-1,2,4-oxadiazol-3-yl)-2-propylphenyl]butanoic acid]"
22,≤ 0.01,"CCCc1c(CCCC(=O)O)cccc1-c1noc(-c2ccc(OC(C)C)c(C#N)c2)n1 [Example 37, 4-[3-(5-{3-cyano-4-[(1-methylethyl)oxy]phenyl}-1,2,4-oxadiazol-3-yl)-2-propylphenyl]butanoic acid]"
23,≤ 0.01,"CCc1c(OCCCC(=O)O)cccc1-c1noc(-c2ccc(OC(C)C)c(C#N)c2)n1 [Example 38, 4-{[3-(5-{3-cyano-4-[(1-methylethyl)oxy]phenyl}-1,2,4-oxadiazol-3-yl)-2-ethylphenyl]oxy}butanoic acid]"
24,≤ 0.001,"CCc1c(OCCCC(=O)O)cccc1-c1noc(-c2ccc(OC(C)C)c(Cl)c2)n1 [Example 39, 4-{[3-(5-{3-chloro-4-[(1-methylethyl)oxy]phenyl}-1,2,4-oxadiazol-3-yl)-2-ethylphenyl]oxy}butanoic acid]"
25,≤ 0.01,"CCc1c(OCC(=O)O)cccc1-c1noc(-c2ccc(OC(C)C)c(C#N)c2)n1 [Example 40, {[3-(5-{3-cyano-4-[(1-methylethyl)oxy]phenyl}-1,2,4-oxadiazol-3-yl)-2-ethylphenyl]oxy}acetic acid]"
26,≤ 0.01,"CCc1c(CCCC(=O)O)cccc1-c1nnc(-c2ccc(OC(C)C)c(C#N)c2)o1 [Example 41, 4-[3-(5-{3-cyano-4-[(1-methylethyl)oxy]phenyl}-1,3,4-oxadiazol-2-yl)-2-ethylphenyl]butanoic acid]"
27,≤ 0.01,"CCc1c(CNCCC(=O)O)cccc1-c1nsc(-c2ccc(OC(C)C)c(C#N)c2)n1 [Example 48, N-{[3-(5-{3-cyano-4-[(1-methylethyl)oxy]phenyl}-1,2,4-thiadiazol-3-yl)-2-ethylphenyl]methyl}-b-alanine]"
28,≤ 0.001,"CCc1c(CCN(C)CC(=O)O)cccc1-c1nsc(-c2ccc(OC(C)C)c(Cl)c2)n1 [Example 49, N-{2-[3-(5-{3-chloro-4-[(1-methylethyl)oxy]phenyl}-1,2,4-thiadiazol-3-yl)-2-ethylphenyl]ethyl}-N-methylglycine]"
29,≤ 0.01,"CCc1c(CCCC(=O)O)cccc1-c1cnc(-c2ccc(OC(C)C)c(C#N)c2)s1 [Example 50, 4-[3-(2-{3-cyano-4-[(1-methylethyl)oxy]phenyl}-1,3-thiazol-5-yl)-2-ethylphenyl]butanoic acid]"
30,≤ 0.01,"COc1c(CCCC(=O)O)cc(F)cc1-c1cnc(-c2ccc(OC(C)C)c(C#N)c2)s1 [Example 51, 4-[3-(2-{3-cyano-4-[(1-methylethyl)oxy]phenyl}-1,3-thiazol-5-yl)-5-fluoro-2-(methyloxy)phenyl]butanoic acid]"
